Reference: the SangsterLogP compilation

Row | Compound | logP
1 | CC(Nc1ccccc1)=C1CCOC1=O | 2.27
2 | NC(=O)c1ccccc1OC1CCOC1=O (centres undefined) | 0.93
3 | O=C1OCCC1N1C(=O)c2ccccc2C1=O (centres undefined) | 1.11
4 | O=C1OCCC1Oc1ccc(Oc2ccccc2)cc1 (centres undefined) | 1.32
5 | CC(NCc1ccccc1)=C1CCOC1=O | 2.21
6 | O=C1OCCC1N1CCN(c2ccc(F)cc2)CC1 (centres undefined) | 2.05
7 | CC1CC(NCc2ccccc2)C(=O)O1 (centres undefined) | 1.76
8 | O=C1OCCC1N1CCN(c2cccc(C(F)(F)F)c2)CC1 (centres undefined) | 2.94
9 | O=C1OCCC1N1CCN(C(c2ccccc2)c2ccccc2)CC1 (centres undefined) | 3.28
10 | O=C1OCCC1NCc1ccccc1 (centres undefined) | 1.47
11 | O=C1CC(N2CCN(c3ccccc3)CC2)CO1 (centres undefined) | 1.22
12 | O=C1OCCC1NCc1ccc(Cl)cc1 (centres undefined) | 1.97
13 | O=C1OCCC1N1CCC(c2ccccc2)CC1 (centres undefined) | 2.43
14 | CC1CC(N2CCN(c3ccccc3)CC2)C(=O)O1 (centres undefined) | 1.56
15 | Cc1cccc(C)c1NC1CCOC1=O (centres undefined) | 1.39
16 | O=C(Cc1ccccc1)NC1CCOC1=O (centres undefined) | 0.8
17 | O=C1OCCC1NCc1ccccc1C(F)(F)F (centres undefined) | 1.83
18 | COc1ccc(CNC2CCOC2=O)cc1 (centres undefined) | 1.43
19 | O=C1OCCC1N1CCN(c2ccccc2)CC1 (centres undefined) | 1.65
20 | O=C(NC1CCOC1=O)c1ccccc1 (centres undefined) | 0.84

Results, then the compound that gave them:

Row | logP | Compound
21 | 1.18 | COc1ccc(Cl)cc1N1CCN(C2CCOC2=O)CC1 (centres undefined)
22 | 1.83 | COc1cc2c(cc1OC)CN(C1CCOC1=O)CC2 (centres undefined)
23 | 1.44 | COc1ccccc1N1CCN(C2CCOC2=O)CC1 (centres undefined)
24 | 1.6 | O=C1OCCC1N1CCc2ccccc2C1 (centres undefined)
25 | 2.53 | COc1ccc(CCNC(C)=C2CCOC2=O)cc1OC
26 | 3.12 | COc1cc2c(cc1OC)C(c1ccccc1)N(C1CCOC1=O)CC2 (centres undefined)
27 | 2.29 | COc1cccc(N2CCN(C3CCOC3=O)CC2)c1 (centres undefined)
28 | 1.2 | O=C1OCCC1N1Cc2ccccc2C1 (centres undefined)
29 | 1.46 | COc1ccc(N2CCN(C3CCOC3=O)CC2)cc1 (centres undefined)
